Here are results for seven molecules from PMC6199744, “Development of Chemical Proteomics for the Folateome and Analysis of the Kinetoplastid Folateome” (ACS Infectious Diseases, 2018).

The structures appear in SMILES notation. Like-named read-outs stand apart in the source and are kept apart here.

Common to all, as to assay type: binding
For assay [1], the target named is T1, HeLa cell extract proteins (Homo sapiens, UniProt O43819).
T1 construct: endogenous in cells; host or cells: HeLa cell extract
T1 sequence (O43819 42-266): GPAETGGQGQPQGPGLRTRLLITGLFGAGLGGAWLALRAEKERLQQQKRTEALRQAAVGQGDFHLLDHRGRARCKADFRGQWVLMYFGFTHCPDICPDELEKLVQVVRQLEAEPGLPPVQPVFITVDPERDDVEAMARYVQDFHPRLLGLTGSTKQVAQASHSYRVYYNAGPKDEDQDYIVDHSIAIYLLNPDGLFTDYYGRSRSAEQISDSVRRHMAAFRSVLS

Assay [2] concerns the target T2, HeLa cell extract proteins (Homo sapiens, UniProt P52292).
T2 construct: endogenous in cells; host or cells: HeLa cell extract

Assay [3] concerns the target T3, HeLa cell extract proteins (Homo sapiens, UniProt P30837).
T3 construct: endogenous in cells; host or cells: HeLa cell extract
T3 sequence (P30837 18-517): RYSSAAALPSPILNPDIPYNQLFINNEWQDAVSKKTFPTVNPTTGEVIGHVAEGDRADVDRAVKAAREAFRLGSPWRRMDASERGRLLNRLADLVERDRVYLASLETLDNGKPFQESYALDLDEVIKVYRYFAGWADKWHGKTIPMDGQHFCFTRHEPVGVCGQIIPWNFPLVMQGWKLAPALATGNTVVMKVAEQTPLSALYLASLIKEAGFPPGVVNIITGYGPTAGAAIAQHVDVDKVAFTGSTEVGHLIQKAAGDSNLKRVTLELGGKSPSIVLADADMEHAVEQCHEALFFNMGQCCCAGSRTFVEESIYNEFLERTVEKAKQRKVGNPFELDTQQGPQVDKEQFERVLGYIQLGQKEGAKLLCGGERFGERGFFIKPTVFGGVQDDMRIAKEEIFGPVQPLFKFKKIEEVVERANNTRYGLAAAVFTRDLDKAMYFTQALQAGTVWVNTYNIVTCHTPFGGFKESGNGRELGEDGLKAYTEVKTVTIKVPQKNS

Assay [4] has as its target T4, HeLa cell extract proteins (Homo sapiens, UniProt Q6PJG6).
T4 construct: endogenous in cells; host or cells: HeLa cell extract
T4 sequence (Q6PJG6 1-821): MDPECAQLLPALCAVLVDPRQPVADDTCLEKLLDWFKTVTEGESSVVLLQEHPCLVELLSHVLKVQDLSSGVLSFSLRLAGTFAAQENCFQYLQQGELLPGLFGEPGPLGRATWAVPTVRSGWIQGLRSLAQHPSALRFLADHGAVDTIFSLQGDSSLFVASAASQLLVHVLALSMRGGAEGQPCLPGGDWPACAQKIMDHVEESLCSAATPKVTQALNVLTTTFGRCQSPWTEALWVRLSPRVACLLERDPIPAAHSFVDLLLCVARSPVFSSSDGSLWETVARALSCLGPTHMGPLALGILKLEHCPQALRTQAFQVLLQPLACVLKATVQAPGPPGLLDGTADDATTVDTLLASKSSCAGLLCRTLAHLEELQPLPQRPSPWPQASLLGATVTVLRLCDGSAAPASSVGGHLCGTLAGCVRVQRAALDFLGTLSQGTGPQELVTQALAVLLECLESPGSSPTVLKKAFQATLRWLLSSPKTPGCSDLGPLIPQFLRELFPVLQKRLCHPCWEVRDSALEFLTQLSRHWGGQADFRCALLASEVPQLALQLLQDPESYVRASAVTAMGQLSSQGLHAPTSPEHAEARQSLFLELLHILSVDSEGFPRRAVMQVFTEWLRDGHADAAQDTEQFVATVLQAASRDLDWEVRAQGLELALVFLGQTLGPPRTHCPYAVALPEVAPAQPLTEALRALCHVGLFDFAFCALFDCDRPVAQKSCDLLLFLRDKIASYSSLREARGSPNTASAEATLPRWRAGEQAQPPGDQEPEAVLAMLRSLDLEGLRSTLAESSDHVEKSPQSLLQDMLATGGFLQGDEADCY

Assay [5] addresses T5, HeLa cell extract proteins (Homo sapiens, UniProt P13797).
T5 construct: endogenous in cells; host or cells: HeLa cell extract
T5 sequence (P13797 1-630): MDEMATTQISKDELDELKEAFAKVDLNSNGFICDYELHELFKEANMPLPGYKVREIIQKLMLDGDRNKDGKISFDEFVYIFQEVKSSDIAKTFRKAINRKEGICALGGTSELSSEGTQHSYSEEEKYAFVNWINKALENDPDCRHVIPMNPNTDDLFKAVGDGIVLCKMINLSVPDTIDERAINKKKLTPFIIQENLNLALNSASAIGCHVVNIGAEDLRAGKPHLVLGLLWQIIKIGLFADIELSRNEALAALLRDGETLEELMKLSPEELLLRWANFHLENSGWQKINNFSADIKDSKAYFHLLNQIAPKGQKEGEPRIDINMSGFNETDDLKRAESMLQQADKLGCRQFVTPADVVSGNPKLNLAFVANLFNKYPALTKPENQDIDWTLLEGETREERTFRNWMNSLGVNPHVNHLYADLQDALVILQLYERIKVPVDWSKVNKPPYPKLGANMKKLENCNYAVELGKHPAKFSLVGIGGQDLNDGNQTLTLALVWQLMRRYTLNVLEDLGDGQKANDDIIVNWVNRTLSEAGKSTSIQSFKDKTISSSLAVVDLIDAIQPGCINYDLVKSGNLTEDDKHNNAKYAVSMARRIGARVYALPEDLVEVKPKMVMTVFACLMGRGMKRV

In assay [6] the target is T6, HeLa cell extract proteins (Homo sapiens, UniProt Q9Y490).
T6 construct: endogenous in cells; host or cells: HeLa cell extract

For assay [7], the target named is T7, HeLa cell extract proteins (Homo sapiens, UniProt O75131).
T7 construct: endogenous in cells; host or cells: HeLa cell extract

The target in assay [8] is T8, HeLa cell extract proteins (Homo sapiens, UniProt Q9UJ70).
T8 construct: endogenous in cells; host or cells: HeLa cell extract
As to conditions: captured protein NAGK; HeLa.

The target of assay [9] is T9, HeLa cell extract proteins (Homo sapiens, UniProt P21266).
T9 construct: endogenous in cells; host or cells: HeLa cell extract
T9 sequence (P21266 1-225): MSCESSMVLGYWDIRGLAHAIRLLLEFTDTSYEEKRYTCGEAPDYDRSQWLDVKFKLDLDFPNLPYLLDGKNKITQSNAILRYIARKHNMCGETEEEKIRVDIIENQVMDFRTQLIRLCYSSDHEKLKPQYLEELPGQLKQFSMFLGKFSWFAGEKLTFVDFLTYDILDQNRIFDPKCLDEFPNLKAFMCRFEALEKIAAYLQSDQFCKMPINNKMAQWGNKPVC
As to conditions: protein GSTM3; HeLa.

Assay [10] concerns the target T10, HeLa cell extract proteins (Homo sapiens, UniProt Q9H7Z7).
T10 construct: endogenous in cells; host or cells: HeLa cell extract
As to conditions: captured protein PTGES2; HeLa.

In assay [11] the target is T11, HeLa cell extract proteins (Homo sapiens, UniProt Q9UGJ1).
T11 construct: endogenous in cells; host or cells: HeLa cell extract
Conditions: HeLa; protein TUBGCP4.

T10 sequence (Q9H7Z7 whole entry): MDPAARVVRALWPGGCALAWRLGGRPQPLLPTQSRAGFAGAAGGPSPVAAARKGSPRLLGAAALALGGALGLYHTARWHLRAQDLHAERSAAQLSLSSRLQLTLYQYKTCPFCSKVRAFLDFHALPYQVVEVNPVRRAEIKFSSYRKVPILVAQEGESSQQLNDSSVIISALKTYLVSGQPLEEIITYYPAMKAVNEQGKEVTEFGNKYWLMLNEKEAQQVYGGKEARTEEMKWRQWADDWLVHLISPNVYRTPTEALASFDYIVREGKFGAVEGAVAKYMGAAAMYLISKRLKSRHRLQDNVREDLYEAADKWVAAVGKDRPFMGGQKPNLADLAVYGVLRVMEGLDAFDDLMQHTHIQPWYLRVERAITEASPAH
T8 sequence (Q9UJ70 whole entry): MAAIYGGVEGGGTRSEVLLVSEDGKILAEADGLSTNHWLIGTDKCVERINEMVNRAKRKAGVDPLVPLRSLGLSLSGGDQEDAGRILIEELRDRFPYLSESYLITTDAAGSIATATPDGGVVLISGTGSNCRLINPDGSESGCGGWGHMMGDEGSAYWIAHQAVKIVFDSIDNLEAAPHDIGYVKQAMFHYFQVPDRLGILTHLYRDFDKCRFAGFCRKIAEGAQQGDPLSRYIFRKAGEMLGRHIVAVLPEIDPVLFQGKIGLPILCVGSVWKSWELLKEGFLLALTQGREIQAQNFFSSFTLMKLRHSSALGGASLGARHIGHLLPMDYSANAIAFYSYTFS
T6 sequence (Q9Y490 whole entry): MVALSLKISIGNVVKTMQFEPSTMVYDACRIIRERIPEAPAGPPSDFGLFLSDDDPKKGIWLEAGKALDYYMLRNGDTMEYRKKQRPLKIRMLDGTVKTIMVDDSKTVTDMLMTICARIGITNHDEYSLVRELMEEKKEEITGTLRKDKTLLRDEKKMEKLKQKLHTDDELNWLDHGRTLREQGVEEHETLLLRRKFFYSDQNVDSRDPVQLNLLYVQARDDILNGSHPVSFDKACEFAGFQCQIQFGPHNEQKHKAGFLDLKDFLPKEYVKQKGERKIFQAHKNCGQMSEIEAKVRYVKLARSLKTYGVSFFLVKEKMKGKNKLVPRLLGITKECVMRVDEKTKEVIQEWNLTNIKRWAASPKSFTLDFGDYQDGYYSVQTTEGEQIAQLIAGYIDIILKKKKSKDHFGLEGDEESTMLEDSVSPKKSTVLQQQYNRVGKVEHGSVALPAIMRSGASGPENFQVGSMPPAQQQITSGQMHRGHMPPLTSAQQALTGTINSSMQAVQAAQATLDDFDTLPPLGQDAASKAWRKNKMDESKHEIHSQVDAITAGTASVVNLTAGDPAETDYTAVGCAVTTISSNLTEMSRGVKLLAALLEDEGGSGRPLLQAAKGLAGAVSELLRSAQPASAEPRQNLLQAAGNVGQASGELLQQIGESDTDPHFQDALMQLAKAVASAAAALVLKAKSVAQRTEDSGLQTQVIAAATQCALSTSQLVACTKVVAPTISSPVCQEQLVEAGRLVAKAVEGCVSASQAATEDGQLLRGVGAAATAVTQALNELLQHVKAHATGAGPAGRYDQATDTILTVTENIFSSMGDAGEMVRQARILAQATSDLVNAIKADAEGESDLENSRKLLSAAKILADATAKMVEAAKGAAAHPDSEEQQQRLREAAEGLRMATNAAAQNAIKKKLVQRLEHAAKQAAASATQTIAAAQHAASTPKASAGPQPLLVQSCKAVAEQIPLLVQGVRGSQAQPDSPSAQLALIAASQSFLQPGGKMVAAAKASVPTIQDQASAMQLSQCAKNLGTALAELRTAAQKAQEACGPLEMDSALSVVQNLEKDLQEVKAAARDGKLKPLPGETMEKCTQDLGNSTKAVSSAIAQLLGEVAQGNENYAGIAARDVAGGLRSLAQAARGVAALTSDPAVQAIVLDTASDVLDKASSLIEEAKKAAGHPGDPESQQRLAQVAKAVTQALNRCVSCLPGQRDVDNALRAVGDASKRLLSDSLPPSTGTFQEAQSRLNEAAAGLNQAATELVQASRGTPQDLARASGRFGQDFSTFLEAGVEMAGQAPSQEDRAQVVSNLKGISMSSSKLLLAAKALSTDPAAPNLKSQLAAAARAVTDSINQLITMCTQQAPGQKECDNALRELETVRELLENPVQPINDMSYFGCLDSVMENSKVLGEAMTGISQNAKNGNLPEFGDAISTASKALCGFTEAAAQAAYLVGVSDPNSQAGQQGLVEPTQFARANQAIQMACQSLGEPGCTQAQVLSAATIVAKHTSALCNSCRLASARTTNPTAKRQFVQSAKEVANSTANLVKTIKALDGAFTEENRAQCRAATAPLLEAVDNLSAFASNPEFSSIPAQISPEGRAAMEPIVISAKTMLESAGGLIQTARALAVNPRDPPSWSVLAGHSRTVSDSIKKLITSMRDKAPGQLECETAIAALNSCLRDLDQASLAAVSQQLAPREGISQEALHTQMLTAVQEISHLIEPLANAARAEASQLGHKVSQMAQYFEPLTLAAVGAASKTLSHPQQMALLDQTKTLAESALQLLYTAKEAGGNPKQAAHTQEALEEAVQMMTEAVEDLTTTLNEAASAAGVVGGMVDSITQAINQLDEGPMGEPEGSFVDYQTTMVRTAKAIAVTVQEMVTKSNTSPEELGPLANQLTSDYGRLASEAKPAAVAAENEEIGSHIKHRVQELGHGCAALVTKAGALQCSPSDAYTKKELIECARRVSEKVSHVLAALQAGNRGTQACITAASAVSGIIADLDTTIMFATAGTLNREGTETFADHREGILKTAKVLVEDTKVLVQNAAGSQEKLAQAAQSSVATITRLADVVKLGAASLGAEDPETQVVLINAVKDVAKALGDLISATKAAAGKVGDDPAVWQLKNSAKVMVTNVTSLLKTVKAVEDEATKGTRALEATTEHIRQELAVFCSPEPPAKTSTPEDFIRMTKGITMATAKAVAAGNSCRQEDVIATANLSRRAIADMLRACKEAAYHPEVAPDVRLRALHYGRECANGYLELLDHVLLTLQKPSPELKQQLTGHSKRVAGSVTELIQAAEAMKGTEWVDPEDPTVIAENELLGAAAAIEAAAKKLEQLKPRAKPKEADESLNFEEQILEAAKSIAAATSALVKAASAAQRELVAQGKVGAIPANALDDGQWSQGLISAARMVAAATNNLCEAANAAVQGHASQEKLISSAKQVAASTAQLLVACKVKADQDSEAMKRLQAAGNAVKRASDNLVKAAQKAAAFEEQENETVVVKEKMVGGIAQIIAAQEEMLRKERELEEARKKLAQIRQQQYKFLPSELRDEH
T7 sequence (O75131 whole entry): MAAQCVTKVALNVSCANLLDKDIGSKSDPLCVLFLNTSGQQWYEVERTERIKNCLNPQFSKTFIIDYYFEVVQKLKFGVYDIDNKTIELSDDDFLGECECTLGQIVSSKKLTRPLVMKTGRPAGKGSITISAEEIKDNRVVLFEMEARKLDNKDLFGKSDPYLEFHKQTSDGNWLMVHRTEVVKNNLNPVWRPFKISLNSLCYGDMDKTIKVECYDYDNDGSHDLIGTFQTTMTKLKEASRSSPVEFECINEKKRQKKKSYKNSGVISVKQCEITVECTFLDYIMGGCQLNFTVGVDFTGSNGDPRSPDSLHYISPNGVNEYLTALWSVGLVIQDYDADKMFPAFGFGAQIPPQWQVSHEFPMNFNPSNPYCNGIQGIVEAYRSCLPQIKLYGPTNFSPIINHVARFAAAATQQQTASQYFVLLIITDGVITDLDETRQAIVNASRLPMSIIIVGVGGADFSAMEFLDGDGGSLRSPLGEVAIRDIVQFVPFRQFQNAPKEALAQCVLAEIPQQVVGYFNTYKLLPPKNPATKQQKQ
T11 sequence (Q9UGJ1 whole entry): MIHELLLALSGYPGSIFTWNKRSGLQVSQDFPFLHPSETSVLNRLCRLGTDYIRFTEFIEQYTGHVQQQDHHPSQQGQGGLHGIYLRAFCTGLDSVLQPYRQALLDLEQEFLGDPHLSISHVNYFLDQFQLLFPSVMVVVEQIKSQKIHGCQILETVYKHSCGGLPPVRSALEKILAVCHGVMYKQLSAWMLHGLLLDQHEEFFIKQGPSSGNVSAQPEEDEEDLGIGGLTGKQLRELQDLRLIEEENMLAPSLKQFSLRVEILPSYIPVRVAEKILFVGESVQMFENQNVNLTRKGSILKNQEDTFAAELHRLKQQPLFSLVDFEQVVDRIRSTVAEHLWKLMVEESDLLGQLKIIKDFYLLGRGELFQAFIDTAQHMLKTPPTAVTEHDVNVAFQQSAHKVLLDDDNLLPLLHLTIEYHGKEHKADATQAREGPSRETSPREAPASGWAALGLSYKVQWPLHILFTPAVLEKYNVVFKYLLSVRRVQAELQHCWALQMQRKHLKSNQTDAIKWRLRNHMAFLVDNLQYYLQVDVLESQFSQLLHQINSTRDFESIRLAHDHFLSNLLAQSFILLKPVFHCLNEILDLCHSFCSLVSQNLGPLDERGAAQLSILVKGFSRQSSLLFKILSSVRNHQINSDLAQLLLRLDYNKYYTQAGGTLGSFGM

Turning to `Nc1nc2c(c(=O)[nH]1)N(C=O)C(CNc1ccc(C(=O)N[C@@H](CCC(=O)O)C(=O)O)cc1)CN2` (stereo partly shown) [LEU, leucovorin], the “fold changes relative to vehicle control” value in [1] (HeLa, protein SCO2) was determined as 0.95; in [2] (HeLa, captured protein KPNA2), 1.01; in assay [3] (HeLa, captured protein ALDH1B1), 1.03; in assay [4] (HeLa, protein C7ORF27) it was 0.75; in assay [5] (HeLa, protein PLS3), 0.93; in [6] (protein TLN1, HeLa), 0.67. In assay [7] (HeLa, protein CPNE3), the “fold changes relative to vehicle control” value is 1.23.

Turning to `Nc1nc2[nH]cc(CCc3ccc(C(=O)N[C@@H](CCC(=O)O)C(=O)O)cc3)c2c(=O)[nH]1` [PTX, pemetrexed], the “fold changes relative to vehicle control” value is listed as 0.95 in [1]; 1 in assay [2]; 0.93 in [3]; 0.88 in [4]; 1.18 in assay [5]; 1.01 in [6]. For the same molecule, the “fold changes relative to vehicle control” value in [7] worked out at 0.77.

Turning to `CCCCCCOc1ccc(Cc2cnc(N)nc2N)cc1` [compound 1], the “fold changes relative to vehicle control” value in [8] worked out at 0.83; in [9], 1.22; in assay [10], 0.87; in assay [11], 0.85.

For the molecule `CCCCCCOc1cccc(Cc2cnc(N)nc2N)c1` [compound 2], the “fold changes relative to vehicle control” value in [8] is given as 1.2; in assay [9] it was 1.72; in assay [10], 1.18; in assay [11] it was 1.07.

Regarding `Nc1nc2cccc(-c3ccccc3)c2n1Cc1ccc(Cl)c(Cl)c1` [compound 3], the “fold changes relative to vehicle control” value came to 0.77 in assay [8], 0.93 in assay [9], 0.84 in assay [10] and 1.02 in assay [11].

Take `NCCOCCOCC(=O)Nc1nc2ncc(CNc3ccc(C(=O)NC(CCC(=O)O)C(=O)O)cc3)nc2c(=O)[nH]1` (stereo not shown) [compound 6]: the “fold changes relative to vehicle control” value is given as 1.02 in [1] (HeLa, protein SCO2); 1.13 in [2] (HeLa, captured protein KPNA2); 1.06 in [3] (HeLa, captured protein ALDH1B1); 1.02 in assay [4] (HeLa, protein C7ORF27); 1.31 in [5] (HeLa, protein PLS3); 0.72 in assay [6] (protein TLN1, HeLa). In addition, in assay [7] (HeLa, protein CPNE3), the “fold changes relative to vehicle control” value is listed as 0.91.

Take `NCCCNc1ccc(C(=O)NC(CCC(=O)O)C(=O)O)cc1` (stereo not shown) [compound 7]: the “fold changes relative to vehicle control” value amounted to 1.03 in [1] (HeLa, protein SCO2); 0.99 in assay [2] (HeLa, captured protein KPNA2); 0.95 in assay [3] (HeLa, captured protein ALDH1B1); 0.87 in assay [4] (HeLa, protein C7ORF27); 1 in [5] (HeLa, protein PLS3); 0.78 in [6] (protein TLN1, HeLa). Also, the “fold changes relative to vehicle control” value in assay [7] (HeLa, protein CPNE3) was found to be 0.85.
